Laboratory results as given in ChEMBL document CHEMBL6092192 (J Med Chem, 2024).
Calls of active or inactive are those of the source. The calls are words filed in the database; no cut-off is given here.

System: SW620/AD300
Test: Antitumor activity against human SW620/AD300 cells xenografted in male BALB/c nude mouse model assessed as reduction in tumor volume at 100 mg/kg/day, IG measured after 21 days in presence of paclitaxel
Assay type: functional, organism-based
Conditions: time 21.0 day

O=c1c2c([nH]c3nc(SCc4nc5ccccc5s4)nn13)CCC2
Activity: Active
